In patent US10981932B2, “Macrocyclic indole derivatives” (Bayer Aktiengesellschaft, priority 2016, dated 2021):
Structures can show the parent of a compound that is named as a salt. Where two headings read alike, the source gives them in different places.

Key:
[1] = test system: OPM2; assay: Anti-proliferative effect (CellTiter-Glo, 72 h), OPM2; type: cell-based; conditions: OPM2 cells, median, read-out: IC50 antiproliferation assay OPM2 [M] (median)
Procedure, shortened: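 CTG luminescence read-out after 72 h compound exposure, 37 °C, humidified. Time-zero reference plate read at plating.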

[2] = target: T1, BCL-2 (Homo sapiens, UniProt P10415); assay: Protein-protein interaction assay BCL-2/Bad BH3 peptide (BCL-2 assay), TR-FRET; type: binding; conditions: His-BCL-2 / Bad BH3-derived peptide, median
T1 construct: BCL-2 (amino acids 1-211, C-terminal fused to a hexahistidine (6×His) tag); purchased BPS Bioscience (San Diego, Calif., USA); host or cells: E. coli
Procedure: Protein-Protein Interaction Assay: BCL-2/Bad BH3 Peptide (BCL-2 Assay)
The dose-dependent inhibition by the compounds described in this invention of the interaction between BCL-2 and the BH3 domain of Bad (both human) was determined using a steady state binding competition assay with time-resolved fluorescence energy transfer (TR-FRET) readout. For that purpose BCL-2 (amino acids 1-211, C-terminal fused to a hexahistidine (6×His) tag and a synthetic Bad BH3-derived peptide of sequence Biotin-PEG2-PEG2-NLWAAQRYGRELRR-Nle-SDEFVDSFKK-amide (SEQ ID NO: 2) served as protein receptor and tracer ligand respectively. The recombinant BCL-2 protein (expressed in E. coli) was purchased from BPS Bioscience (San Diego, Calif., USA). The Bad BH3-derived peptide can be obtained from e.g. Biosyntan (Berlin, Germany).
In the assay 11 different concentrations of each compound (0.1 nM, 0.33 nM, 1.1 nM, 3.8 nM. 13 nM, 44 nM, 0.15 μM, 0.51 μM, 1.7 μM, 5.9 μM and 20 μM) were typically measured as duplicates in the same microtiter plate. For that, 100-fold concentrated DMSO solutions were prepared by serial dilutions (1:3.4) of a 2 mM stock solution in a clear, 384-well microtiter plate (Greiner Bio-One, Frickenhausen, Germany). From there, 50 nl were transferred in a dark test plate (Greiner Bio-One. Frickenhausen, Germany). The assay was initiated by addition of 2 μl of a 2,5-fold concentrated His-BCL-2 solution (usually for a 1 nM end concentration in 5 μl reaction volume) in aqueous assay buffer [50 mM Tris/HCl pH 7, 100 mM sodium chloride (NaCl), 50 mM potassium fluoride (KF), 0.005% Tween-20, 2 mM DTT, 0.1% bovine gamma globulin (BGG)] to the compounds in the assay plate. This was followed by a 10-minute incubation step at 22° C. for pre-equilibration of the putative complex between His-BCL-2 and the compounds.
The mixture was incubated in the dark for one hour at 22° C. and then overnight at 4° C. The formation of BCL-2/Bad complexes was determined by measuring the resonance energy transfer of the anti-His-Eu-cryptate antibody to the streptavidin-XL665 present in the reaction. For that purpose, the fluorescence emission at 620 nm and 665 nm after excitation at 330-350 nm was measured in a TR-FRET measuring instrument, for instance a Rubystar or a Pherastar (both from BMG Lab Technologies. Offenburg, Germany) or a Viewlux (Perkin-Elmer). The ratio of the emission at 665 nm and at 622 nm was used as indicator of the amount of BCL-2/Bad complexes present.
The resulting data (ratio) were normalized, taking 0% inhibition as the mean value of control measurements (usually 32 data points) where all reagents were included. In this case 50 nl DMSO were used instead of compounds. A 100% inhibition corresponded to the mean value of control measurements (usually 32 data points) where all reagents except BCL-2 were included. IC50 values were determined by regression analysis based on a 4 parameter equation (minimum, maximum, IC50, Hill; Y=Max+(Min−Max)/(1+(X/IC50)^Hill) using the Screener Software (Genedata).

T1 sequence (P10415 1-211): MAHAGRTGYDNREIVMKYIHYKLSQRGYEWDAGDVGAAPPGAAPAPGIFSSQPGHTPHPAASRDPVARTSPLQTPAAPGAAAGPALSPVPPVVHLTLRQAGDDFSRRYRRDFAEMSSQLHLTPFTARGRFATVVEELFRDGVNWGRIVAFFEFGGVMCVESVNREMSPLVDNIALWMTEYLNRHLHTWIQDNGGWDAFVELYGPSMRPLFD

Row | IC50 [2] [µM] | SMILES | IC50 [1] [M] | IC50 ([1]; Homo sapiens, OPM-2, 72 h) [M]
1 | > 20 | Cn1nc(COc2ccc(N3CCN(C(=O)C4CC4)CC3)cc2)c2c1COCCCCn1c(C(=O)O)c(CCCOc3cccc4ccccc34)c3cccc-2c31 (single isomer, unassigned; enantiomer 1) [Example 1-22, 3-({4-[4-(cyclopropylcarbonyl)piperazin-1-yl]phenoxy}methyl)-1-methyl-7-[3-(naphthalen-1-yloxy)propyl]-1,10,11,12,13,15-hexahydropyrazolo[4′,3′:9,10][1,6]oxazacycloundecino[8,7,6-hi]indole-8-carboxylic Acid (Enantiomer 1)] | 2.56e-06 | 
2 | > 20 | CC(C)c1c2c(nn1C)CN(C)CCCn1c(C(=O)O)c(CCCOc3cccc4ccccc34)c3cccc-2c31 (racemic) [Example 113, (rac)-7,10-dimethyl-1-[3-(naphthalen-1-yloxy)propyl]-11-(propan-2-yl)-4,5,6,7,8,10-hexahydropyrazolo[3′,4′:7,8][1,5]diazecino[9,10,1-hi]indole-2-carboxylic Acid] |  | 1.42e-05
3 | > 20 | COCCn1nc2c(c1CN1CCOCC1)-c1cccc3c(CCCOc4cccc5ccccc45)c(C(=O)O)n(c13)CCCN(C)C2 (single isomer, unassigned; enantiomer 1) [Example 057, 10-(2-methoxyethyl)-7-methyl-11-(morpholin-4-ylmethyl)-1-[3-(naphthalen-1-yloxy)propyl]-4,5,6,7,8,10-hexahydropyrazolo[3′,4′:7,8][1,5]diazecino[9,10,1-hi]indole-2-carboxylic Acid (Enantiomer 1)] |  | > 3.3e-05
4 | > 20 | COCCn1nc2c(c1C1CC1)-c1cccc3c(CCCOc4cccc5ccccc45)c(C(=O)O)n(c13)CCCCOC2 (single isomer, unassigned; enantiomer 1) [Example 085, 3-Cyclopropyl-2-(2-methoxyethyl)-7-[3-(naphthalen-1-yloxy)propyl]-2,10,11,12,13,15-hexahydropyrazolo[4′,3′:9,10][1,6]oxazacycloundecino[8,7,6-hi]indole-8-carboxylic acid-N-ethylethanamine Salt (Enantiomer 1)] |  | 
5 | > 20 | Cc1c2c(nn1C1CC1)COCCCCn1c(C(=O)O)c(CCCOc3cccc4ccccc34)c3cccc-2c31 (single isomer, unassigned; enantiomer 1) [Example 093, 2-cyclopropyl-3-methyl-7-[3-(naphthalen-1-yloxy)propyl]-2,10,11,12,13,15-hexahydropyrazolo[4′,3′:9,10][1,6]oxazacycloundecino[8,7,6-hi]indole-8-carboxylic acid-N-ethylethanamine Salt (Enantiomer 1)] |  | 
6 | > 20 | CCn1nc2c(c1C1CC1)-c1cccc3c(CCCOc4cccc5ccccc45)c(C(=O)O)n(c13)CCCCOC2 (single isomer, unassigned; enantiomer 1) [Example 082, 3-cyclopropyl-2-ethyl-7-[3-(naphthalen-1-yloxy)propyl]-2,10,11,12,13,15-hexahydropyrazolo[4′,3′:9,10][1,6]oxazacycloundecino[8,7,6-hi]indole-8-carboxylic acid-N-ethylethanamine Salt (Enantiomer 1)] |  | 
7 | > 20 | Cc1ccc2c(CCCOc3cccc4ccccc34)c(C(=O)O)n3c2c1-c1c(nn(C)c1C)CN(C)CCC3 (single isomer, unassigned; enantiomer 1) [Example 073, 7,10,11,12-tetramethyl-1-[3-(naphthalen-1-yloxy)propyl]-4,5,6,7,8,10-hexahydropyrazolo[3′,4′:7,8][1,5]diazecino[9,10,1-hi]indole-2-carboxylic Acid (Enantiomer 1)] |  | 
8 | > 20 | CCc1c2c(nn1C)CN(C)CCCn1c(C(=O)O)c(CCCOc3cccc4ccccc34)c3ccc(C)c-2c31 (racemic) [Example 144, (rac)-11-ethyl-7,10,12-trimethyl-1-[3-(1-naphthyloxy)propyl]-4,5,6,7,8,10-hexahydropyrazolo[3′,4′:7,8][1,5]diazecino[9,10,1-hi]indole-2-carboxylic Acid] |  | 5.52e-06
9 | > 20 | CC(C)OCc1nn(C)c2c1-c1cccc3c(CCCOc4cccc5ccccc45)c(C(=O)O)n(c13)CCCCN(C)C2 (single isomer, unassigned) [Example 1-74, 1,14-dimethyl-7-[3-(naphthalen-1-yloxy)propyl]-3-[(propan-2-yloxy)methyl]-10,11,12,13,14,15-hexahydro-1H-pyrazolo[3′,4′:8,9][1,6]diazacycloundecino[10,11,1-hi]indole-8-carboxylic Acid] |  | 1.6e-05
10 | > 20 | Cc1ccc2c(CCCOc3cccc4c3CCCC4)c(C(=O)O)n3c2c1-c1c(C)nn(C)c1COCCCC3 (racemic) [Example 039, (rac)-1,3,4-trimethyl-7-[3-(5,6,7,8-tetrahydronaphthalen-1-yloxy)propyl]-110,11,12,13,15-hexahydropyrazolo[4′3′:9,10][1,6]oxazacycloundecino[8,7,6-hi]indole-8-carboxylic Acid] |  | 
11 | > 20 | CCc1c2c(nn1C)COCCCCn1c(C(=O)O)c(CCCOc3cccc4ccccc34)c3ccc(C)c-2c31 (racemic) [Example 153, (rac)-3-Ethyl-2,4-dimethyl-7-[3-(1-naphthyloxy)propyl]-2,10,11,12,13,15-hexahydropyrazolo[4′,3′:9,10][1,6]oxazacycloundecino[8,7,6-hi]indole-8-carboxylic Acid] |  | 8.4e-06
12 | > 20 | Cc1nn(C)c2c1-c1cccc3c(CCCOc4cccc5cc(F)ccc45)c(C(=O)O)n(c13)CCCCOC2 (single isomer, unassigned; enantiomer 1) [Example 019, 7-{3-[(6-fluoronaphthalen-1-yl)oxy]propyl}-1,3-dimethyl-1,10,11,12,13,15-hexahydropyrazolo[4′,3′:9,10][1,6]oxazacycloundecino[8,7,6-hi]indole-8-carboxylic Acid-N-ethylethanamine Salt (Enantiomer 1)] |  | 
13 | > 20 | Cc1nn(C)c2c1-c1cccc3c(CCCOc4cccc5ccccc45)c(C(=O)O)n(c13)CCCCOCC2 (racemic) [Example 017, (rac)-1,3-dimethyl-7-[3-(1-naphthyloxy)propyl]-10,11,12,13,15,16-hexahydro-1H-pyrazolo[4′,3′:9,10][1,6]oxazacyclododecino[8,7,6-hi]indole-8-carboxylic Acid] | > 3.3e-05 | 2.78e-05
14 | > 20 | COCCn1nc2c(c1C)-c1cccc3c(CCCOc4cccc5ccccc45)c(C(=O)O)n(c13)CCCCOC2 (single isomer, unassigned; enantiomer 1) [Example 107, 2-(2-methoxyethyl)-3-methyl-7-[3-(naphthalen-1-yloxy)propyl]-2,10,11,12,13,15-hexahydropyrazolo[4′,3′:9,10][1,6]oxazacycloundecino[8,7,6-hi]indole-8-carboxylic acid-N-ethylethanamine Salt (Enantiomer 1)] |  | 
15 | > 20 | Cc1nn(C)c2c1-c1cccc3c(CCCOc4cccc5cc(Cl)ccc45)c(C(=O)O)n(c13)CCCCOC2 (single isomer, unassigned; enantiomer 1) [Example 041, 7-{3-[(6-chloronaphthalen-1-yl)oxy]propyl}-1,3-dimethyl-1,10,11,12,13,15-hexahydropyrazolo[4′,3′:9,10][1,6]oxazacycloundecino[8,7,6-hi]indole-8-carboxylic acid-N-ethylethanamine Salt (Enantiomer 1)] |  | 
